Test results published in US20040197321A1, “Composition and method to prevent or reduce diarrhea and steatorrhea in HIV patients” (priority 2002, published 2004).
“Also recorded” adds a separate entry of the source. Where a name gives a salt, the structure may show the parent alone. Read-outs that look alike come from different tables or passages of the source.

Experiments:
[1] = molecular target: T1, USP Reference Standard Pancrelipase (Sus scrofa, UniProt P00591); experiment: Lipase assay (USP titrimetric): inhibition of pancrelipase at pH 9.0; type: biochemical
T1 sequence (P00591 1-450): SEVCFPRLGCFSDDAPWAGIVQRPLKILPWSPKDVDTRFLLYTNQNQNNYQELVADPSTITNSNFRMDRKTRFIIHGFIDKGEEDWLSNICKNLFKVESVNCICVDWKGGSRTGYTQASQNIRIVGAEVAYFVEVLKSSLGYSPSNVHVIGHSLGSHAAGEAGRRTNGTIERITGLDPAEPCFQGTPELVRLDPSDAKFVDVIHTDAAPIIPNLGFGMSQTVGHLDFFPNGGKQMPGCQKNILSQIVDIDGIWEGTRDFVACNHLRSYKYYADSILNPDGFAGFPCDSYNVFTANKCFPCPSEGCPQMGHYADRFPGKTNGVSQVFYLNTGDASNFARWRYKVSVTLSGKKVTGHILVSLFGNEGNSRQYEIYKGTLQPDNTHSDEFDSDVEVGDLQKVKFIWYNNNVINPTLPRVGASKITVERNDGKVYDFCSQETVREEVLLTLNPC
Procedure: (§1) The enzyme sources consisted of USP Reference Standard Pancrelipase, USP Reference Standard Trypsin, colipase (Sigma Chemical Co.), and enterokinase (ICN Biochemicals). Appropriate concentrations of enzyme reference standard were prepared in cold distilled water, as described in USP reference assay procedures. The Infectious Disease Clinic in Somerville, N.J. provided the HAART medications. Pure drugs could not be obtained so commercial drug preparations were used in the assays. […] Appropriate concentrations of HAART drug, drug cocktails, and excipients were prepared in distilled water and reagent-grade methanol (Aldrich, Milwaukee, Wis.) or DMSO (Aldrich, Milwaukee, Wis.).
One unit (U) of lipase activity is defined as the amount of enzyme that liberates one μequivalent of free fatty acid from triglycerides per minute at pH 9.0 and 37° C. Lipase activity (U/mg) was determined by a lipase specific titrimetric assay described in the United States Pharmacopeia (USP), Volume XXII. In brief, the substrate consists of 10% olive oil in acacia solution, 40-mg/mL sodium taurocholate, 0.075M calcium chloride, 0.05M Tris in 3.0M NaCl buffer solution (pH 7.5) and distilled water. The emulsified substrate is incubated at 37° C. and brought to pH 9.0 with 0.02N NaOH. At time zero, 1.0 mL of enzyme solution was added. A pH stat autotitrator was used to maintain pH 9.0 and the volume of 0.02 N NaOH dispensed per unit time was recorded for five (5) minutes. From the initial slope of this plot, lipase activity was calculated using the following equation:
U/mg=slope (mL of NaOH dispensed/min)×N of NaOH×1000 /mg of enzyme assayed
HAART drug solutions were mixed with the substrate prior to incubation and addition of enzyme.

[2] = molecular target: T2, pancrelipase (Sus scrofa, UniProt P00591); experiment: Pancrelipase reactivation by colipase; type: biochemical; details: for % Lipase Activity with Colipase: colipase 5 μg/mL
T2 construct: Sigma Chemical Co. (colipase)
T2 sequence (P00591 1-450): T1 sequence (P00591 1-450)
Procedure: Junge et al., described the procedure for the reactivation of lipase by colipase. In brief, the above lipase assay procedure was used with the following variation: colipase solution replaced the distilled water so the concentration of colipase in the final reaction mixture was 5 μg/mL.

[3] = molecular target: T3, USP Reference Standard Trypsin (Bos taurus, UniProt P00760); experiment: Trypsin assay (spectrophotometric); type: biochemical; details: NRTI; drug 2.1*10^-4M (Drug Tested 44-141 μg/mL); trypsin 7.6 μg/mL; 25° C.
T3 sequence (P00760 24-246): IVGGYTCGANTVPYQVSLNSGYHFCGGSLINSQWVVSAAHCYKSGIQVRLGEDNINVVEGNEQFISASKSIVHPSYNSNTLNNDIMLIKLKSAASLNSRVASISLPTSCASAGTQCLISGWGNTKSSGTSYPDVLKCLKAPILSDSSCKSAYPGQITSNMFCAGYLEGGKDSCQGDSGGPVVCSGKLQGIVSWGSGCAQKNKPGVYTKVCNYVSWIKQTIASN
Procedure: as §1, with “Appropriate” for “The enzyme sources consisted of USP Reference Standard Pancrelipase, USP Reference Standard Trypsin, colipase (Sigma Chemical Co.), and enterokinase (ICN Biochemicals). Appropriate”

[4] = system: HIV patients; details: Kakuda et al. 1998; cited from earlier work
[5] = system: pancrelipase; experiment: Recovery of pancrelipase activity after inhibition, by addition of excess lipase; type: biochemical
Procedure: The above procedure was used to monitor pancrelipase activity with the exception that drug was not preincubated with the substrate. At time zero 1.0 mL of pancrelipase was added to initiate the reaction. At five (5) minutes, 1.0 mL of HAART drug solution was added to the reaction mixture to cause inhibition of lipase activity. At twelve (12) minutes an additional 1.0 mL of pancrelipase was added to the reaction mixture to overcome HAART inhibition. The reaction was monitored for twenty (20) minutes.

[6] = pH 9.0, read-out: IC50 for inhibitors of pancrelipase (converted)

Compound: CC(C)(C)NC(=O)[C@@H]1C[C@@H]2CCCC[C@@H]2CN1C[C@@H](O)[C@H](Cc1ccccc1)NC(=O)[C@H](CC(N)=O)NC(=O)c1ccc2ccccc2n1 [FORTOVASE ®, Saquinavir]
- IC50 ([1]; IC50 for inhibitors of pancrelipase, pH 9.0): 3230 µM

Compound: CCCCCCCCCCC[C@@H](C[C@@H]1OC(=O)[C@H]1CCCCCC)OC(=O)[C@H](CC(C)C)NC=O [ORLISTAT, Orlistat, reference compound]
- effect of added colipase on the inhibition of pancrelipase (in words) [2]: no effect
- % Lipase Activity No Colipase ([2]; Drug Conc. 0.002 mg/mL): 37%
- % Lipase Activity with Colipase ([2]; Drug Conc. 0.002 mg/mL): 29%

Compound: Cc1c(O)cccc1C(=O)N[C@@H](CSc1ccccc1)[C@H](O)CN1C[C@H]2CCCC[C@H]2C[C@H]1C(=O)NC(C)(C)C [VIRACEPT ®, Nelfinavir mesylate]
- IC50 [1, 6]: 780 µM

Compound: Nc1ccn([C@H]2CC[C@@H](CO)O2)c(=O)n1 [Zalcitabine USP Ref. STND, 2′,3′-Dideoxycytidine]
- Inhibition of Tryspin [3]: 0%

Compound: Cc1c(O)cccc1C(=O)N[C@@H](CSc1ccccc1)[C@H](O)CN1C[C@H]2CCCC[C@H]2C[C@H]1C(=O)NC(C)(C)C [nelfinavir, 2-[2′-hydroxy-3′-phenylthiomethyl-4′-aza-5′-oxo-5′-(2″-methyl-3″-hydroxyphenyl)pentyl]decahydroisoquinoline-3-N-t-butyl-carboxamide]
- HIV patients who experience diarrhea [4]: 12-20%

Compound: D-α-tocopheryl polyethylene glycol 1000 succinate [TPGS]
- inhibition of pancrelipase (in words) [1]: significantly inhibited; also recorded: significant inhibition
- IC50 for inhibitors of pancrelipase ([1]; pH 9.0): 275 µg/mL
- % Inhibition of Pancrelipase ([1]; pH 9.0, Wt % Excipient in Source Used 0.2): 6%
- % Inhibition of Pancrelipase ([1]; pH 9.0, Wt % Excipient in Source Used 0.5): 43%
- % Inhibition of Pancrelipase ([1]; pH 9.0, Wt % Excipient in Source Used 1): 79%
- % Inhibition of Pancrelipase ([1]; pH 9.0, Wt % Excipient in Source Used 2): 93%
- % Inhibition of Pancrelipase ([1]; pH 9.0, Wt % Excipient in Source Used 4): 95%
- % Inhibition of Pancrelipase ([1]; pH 9.0, Wt % Excipient in Source Used 20): 96%
- IC50 [1, 6]: 182 µM
- effect of addition of excess lipase on the inhibition of pancrelipase (in words) [5]: can be overcome
- % Reactivation of Pancrelipase ([5]; after addition of excess lipase (additional 1.0 mL pancrelipase at 12 minutes)): 98%
- % Pancrelipase Activity ([5]; drug inhibited, before addition of excess lipase): 55%
- effect of added colipase on the inhibition of pancrelipase (in words) [2]: reversed; also recorded: restored pancrelipase activity
- % Lipase Activity No Colipase ([2]; Drug Conc. 10.0 mg/mL): 21%
- % Lipase Activity with Colipase ([2]; Drug Conc. 10.0 mg/mL): 79%

Compound: Vitamin E
- % Inhibition of Pancrelipase ([1]; pH 9.0, Wt % Excipient in Source Used 50): 20%
